For data set [1], the system named is human colon carcinoma HT29 cell line. The conditions noted are these: supplemented with high concentrations of PLP and leucovorin; cited from earlier work.
Data set [2] has as its system murine leukemia L1210 cell line. The conditions noted are these: supplemented with high concentrations of PLP and leucovorin; cited from earlier work.
The subject of data set [3] is human colon carcinoma HCT116 cell line. The conditions noted are these: supplemented with high concentrations of PLP and leucovorin; cited from earlier work.
In another data set the test system is solid tumors. The data set can be described thus: Phase I/IIa study ISO-CC-005 of arfolitixorin with 5-FU. In kind it is in vivo, human. The conditions noted are these: between 8 and 16 weeks after initiating treatment. As for the experimental part: Arfolitixorin has been in development for a number of years and has been studied in several clinical studies.
The completion of the study was announced in January 2020. In total, 105 patients were included in the study. […] These patients had been treated with the “doublet” regimens comprising 120 mg/m^2 arfolitixorin and 5-fluorouracil (5-FU) with either irinotecan or oxaliplatin (ARFIRI/ARFOX). Out of the 31 patients, 17 were treated with an ARFOX regimen.

Data set [4] can be described thus: [6R]-MTHF levels after arfolitixorin versus comparable leucovorin treatment. In kind it is in vivo. The source says: This dependency on cellular activation provides a hurdle for reaching sufficient levels of the active [6R]-MTHF. […] Secondly, the enzymatic activation is genetically regulated^16,18, and is therefore associated with variability between individuals and conditions. Arfolitoxirin is believed to be efficacious in a larger proportion of patients with less inter- and intra-individual variability. These differences may potentially turn out to be of significant importance for increased clinical efficacy in 5-FU based cancer treatment.

For data set [5] the following is noted: cited from earlier work.
For data set [6] the following is noted: air, sunlight; cited from earlier work.
A short description of data set [7]: Stability of the drug substance salt. The conditions noted are these: compared with very unstable [6R]-5,10-MTHF. It counts as physicochemical. The source says: Arfolitixorin (former Modufolin®) is a folate-based biomodulator developed by applicant to improve the outcome of a range of antimetabolite treatments used within oncology. One of the therapeutic areas of specific interest included in the development program of arfolitixorin is as biomodulator of 5-fluorouracil (5-FU) activity in standard treatment regime for advanced, metastatic CRC, such as Stage IV. A stable lyophilizate formulation of the naturally occurring diastereoisomeric folate [6R]-5,10-MTHF has successfully been made from the drug substance arfolitixorin hemisulfate. […] As mentioned in the background section of the present application, [6R]-5,10-methylenetetrahydrofolate, abbreviated herein as [6R]-5,10-MTHF, needs to be metabolically formed when using the widely used folate-based drugs leucovorin and levoleucovorin.

The conditions of data set [8]: kidneys; cited from earlier work.
For data set [9] the following is noted: in vitro; cited from earlier work.

“Also recorded” adds a separate entry of the source.

For `O=c1[nH]cc(F)c(=O)[nH]1` [5-FU, 5-fluorouracil], the “cytotoxic activity of 5-FU” value in [1], in data set [2] and in data set [3] was “potentiated; also recorded: strongly potentiated” in each case.

On to `Nc1nc2c(c(=O)[nH]1)N1CN(c3ccc(C(=O)N[C@@H](CCC(=O)O)C(=O)O)cc3)C[C@H]1CN2` [Arfolitixorin, [6R]-5,10-methylenetetrahydrofolate], for which the “progression of solid tumors” value in the data set on solid tumors is “No statistically significant progression”. Besides, the “[6R]-MTHF levels relative to comparable treatment with leucovorin” value in [4] was 3-4 times. Regarding `Cc1ncc(CO)c(CO)c1O.Cl` [Pyridoxine hydrochloride], the solubility in water result in data set [5] is listed as “One gram dissolves in 5 ml of water”. Further, the stability entry in [6] was “stable in air and is slowly affected by sunlight”. Consider `Nc1nc2c(c(=O)[nH]1)N1CN(c3ccc(C(=O)N[C@@H](CCC(=O)O)C(=O)O)cc3)C[C@H]1CN2.Nc1nc2c(c(=O)[nH]1)N1CN(c3ccc(C(=O)N[C@@H](CCC(=O)O)C(=O)O)cc3)C[C@H]1CN2.O=S(=O)(O)O` [arfolitixorin hemisulfate], for which, in [7], the “stability of the salt” value is recorded as “unexpectedly stable salt”. `Nc1nc2c(c(=O)[nH]1)N(C=O)[C@H](CNc1ccc(C(=O)N[C@@H](CCC(=O)O)C(=O)O)cc1)CN2` [d-LV]: in data set [8], the excretion entry is “slowly excreted by the kidneys”. As to `Nc1nc(=O)c2c([nH]1)NC[C@H](CNc1ccc(C(=O)N[C@@H](CCC(=O)O)C(=O)O)cc1)N2C=O` [l-LV], in [9], the conversion to methyl-tetrahydrofolate result was “rapidly converted to the biologically available methyl-tetrahydrofolate form”.

Source of the values: US20240350495A1, “[6R]-MTHF IN B6 ENHANCED 5-FU BASED CHEMOTHERAPY OF CARCINOMA” (Isofol Medical AB, priority 2023, published 2024).
